Laboratory results: publication PMC6093232, “PROMIS, global analysis of PROtein–metabolite interactions using size separation in Arabidopsis thaliana” (The Journal of Biological Chemistry, 2018)
Where two headings read alike, the source gives them in different places. Where a SMILES comes first, the peptide text is derived from it.

Legend:
[1] = molecular target: T1, GAPCP1 (Arabidopsis thaliana, UniProt Q9SAJ6); assay: biochemical; design: nanoDSF thermal shift, intrinsic fluorescence ratio 350/330 nm, Prometheus NT.48; conditions: 1x PBS
T1 construct: N-terminal His6 (pDEST17), cloned from Arabidopsis cDNA, expressed in E. coli, SEC purified
T1 sequence (Q9SAJ6 whole entry): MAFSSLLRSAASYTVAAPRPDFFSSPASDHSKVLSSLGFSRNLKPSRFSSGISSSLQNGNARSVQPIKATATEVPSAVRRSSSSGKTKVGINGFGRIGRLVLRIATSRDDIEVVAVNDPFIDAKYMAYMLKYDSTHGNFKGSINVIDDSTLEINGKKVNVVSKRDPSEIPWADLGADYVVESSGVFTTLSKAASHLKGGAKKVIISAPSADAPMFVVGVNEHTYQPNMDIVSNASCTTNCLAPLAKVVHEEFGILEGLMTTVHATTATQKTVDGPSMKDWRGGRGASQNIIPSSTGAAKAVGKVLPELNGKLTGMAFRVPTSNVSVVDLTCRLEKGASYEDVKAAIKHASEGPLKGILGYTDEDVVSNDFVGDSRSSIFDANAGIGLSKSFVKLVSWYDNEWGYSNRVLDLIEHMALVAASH
Procedure: (§1) Protein thermal stability measurements GAPC1/2, GAPCP1, and GAPCP2 proteins were obtained as described above, and the human GAPDH recombinant protein was obtained from a commercial supplier (Sigma) and stored in 10 mM Tris buffer (pH 7.5, 0.5 M NaCl). Tyr–Asp (25 μM), 3PGA (250 μM), and other dipeptides (25 μM) were prepared in 1× PBS buffer for the measurements using GAPC1/2 protein. For GAPCP1 Tyr–Asp (25 μM), 3PGA (250 μM) and other dipeptides (25 μM) were prepared in 1× PBS buffer, whereas for GAPCP2 Tyr–Asp (50 μM), 3PGA (250 μM) and other dipeptides (50 μM) were prepared in 1× PBS buffer. In addition, for the human GAPDH Tyr–Asp (500 μM), 3PGA (500 μM) and other dipeptides (500 μM) were prepared in Tris buffer (10 mM Tris-HCl, pH 7.5, 0.5 M NaCl). In accordance, GAPDH (1 μM) and GAPCs (0.2–0.25 mg/ml) were diluted using Tris or PBS buffer, respectively. Capillaries were loaded into the Prometheus NT.48 (Nanotemper). Unfolding was detected during heating in a linear thermal ramp (2 °C min^−1, 20–90 °C) with an excitation power of 60–100%. Temperature-dependent protein unfolding was determined from changes in tryptophan and tyrosine fluorescence at emission wavelengths of 350 and 330 nm. Melting temperatures were determined by detecting the maximum of the first derivative of the fluorescence ratios (F350 nm/F330 nm) as described previously ([43]). To validate the binding, we first tested a commercially available human homolog of GAPC1, GAPDH. Subsequently, plant GAPC1/2, GAPCP1, and GAPCP2 were overexpressed and purified from E. coli. Binding was probed using nano-DSF technology from Nanotemper (Prometheus NT.48; see under “Experimental procedures”). Prometheus NT.48 traces protein thermal stability by recording changes in the tryptophan residues during protein unfolding in an increasing temperature gradient. The melting temperature (Tm) of GAPDH was calculated as 60 °C, GAPC1/2 to 54 °C, GAPCP1 to 55 °C, and GAPCP2 to 55 °C (Fig. 7, C–F; Tables S5 and S6). […] Analogous results were obtained for Tyr–Asp. More specifically, 500 μM Tyr–Asp stabilized GAPDH by ∼1.1 °C, whereas 25–50 μM Tyr–Asp destabilized GAPC1/2, GAPCP1, and GAPCP2 by ∼1, 2, and 1.5 °C, respectively (Fig. 7, C–F; Tables S5 and S6). The obtained results validate the interaction between Tyr–Asp and plant glyceraldehyde-3-P dehydrogenases. The interaction is conserved in the human enzyme.

[2] = molecular target: T2, GAPDH (Homo sapiens, UniProt P04406); assay: biochemical; design: nanoDSF thermal shift, intrinsic fluorescence ratio 350/330 nm, Prometheus NT.48; conditions: 10 mM Tris pH 7.5, 0.5 M NaCl
T2 construct: commercial human recombinant protein (Sigma)
T2 sequence (P04406 2-335): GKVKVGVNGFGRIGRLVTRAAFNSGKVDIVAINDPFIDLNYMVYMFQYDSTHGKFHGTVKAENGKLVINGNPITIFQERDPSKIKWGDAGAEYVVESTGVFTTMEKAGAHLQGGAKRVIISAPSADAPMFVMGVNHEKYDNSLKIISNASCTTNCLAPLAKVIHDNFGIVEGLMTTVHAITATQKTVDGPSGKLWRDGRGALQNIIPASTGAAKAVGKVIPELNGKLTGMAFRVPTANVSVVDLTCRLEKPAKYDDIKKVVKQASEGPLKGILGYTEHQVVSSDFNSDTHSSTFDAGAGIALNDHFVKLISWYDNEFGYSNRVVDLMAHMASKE
Procedure: as §1

[3] = molecular target: T3, GAPCP2 (Arabidopsis thaliana, UniProt Q5E924); assay: biochemical; design: nanoDSF thermal shift, intrinsic fluorescence ratio 350/330 nm, Prometheus NT.48; conditions: 1x PBS
T3 construct: N-terminal His6 (pDEST17), cloned from Arabidopsis cDNA, expressed in E. coli, SEC purified
T3 sequence (Q5E924 67-420): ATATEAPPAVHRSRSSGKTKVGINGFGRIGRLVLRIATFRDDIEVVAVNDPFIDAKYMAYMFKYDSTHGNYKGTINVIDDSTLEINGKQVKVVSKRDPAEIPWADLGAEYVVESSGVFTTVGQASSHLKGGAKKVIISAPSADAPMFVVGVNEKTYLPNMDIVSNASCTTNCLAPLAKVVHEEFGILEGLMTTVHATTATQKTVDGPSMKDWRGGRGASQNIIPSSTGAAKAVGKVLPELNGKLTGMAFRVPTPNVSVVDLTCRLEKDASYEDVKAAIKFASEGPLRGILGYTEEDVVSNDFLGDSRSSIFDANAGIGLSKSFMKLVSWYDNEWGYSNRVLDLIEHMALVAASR
Procedure: as §1

[4] = molecular target: T1, GAPCP1; assay: nanoDSF thermal shift; type: binding; conditions: 25 μM ligand; 0.2-0.25 mg/ml protein; PBS
[5] = molecular target: T1, GAPCP1; assay: biochemical; design: nanoDSF thermal shift; Tm from ratio of tryptophan fluorescence at 350 and 330 nm
Procedure: (§2) GAPC1/2, GAPCP1, and GAPCP2 proteins were obtained as described above, and the human GAPDH recombinant protein was obtained from a commercial supplier (Sigma) and stored in 10 mM Tris buffer (pH 7.5, 0.5 M NaCl). Tyr–Asp (25 μM), 3PGA (250 μM), and other dipeptides (25 μM) were prepared in 1× PBS buffer for the measurements using GAPC1/2 protein. For GAPCP1 Tyr–Asp (25 μM), 3PGA (250 μM) and other dipeptides (25 μM) were prepared in 1× PBS buffer, whereas for GAPCP2 Tyr–Asp (50 μM), 3PGA (250 μM) and other dipeptides (50 μM) were prepared in 1× PBS buffer. In addition, for the human GAPDH Tyr–Asp (500 μM), 3PGA (500 μM) and other dipeptides (500 μM) were prepared in Tris buffer (10 mM Tris-HCl, pH 7.5, 0.5 M NaCl). […] Unfolding was detected during heating in a linear thermal ramp (2 °C min^−1, 20–90 °C) with an excitation power of 60–100%. Temperature-dependent protein unfolding was determined from changes in tryptophan and tyrosine fluorescence at emission wavelengths of 350 and 330 nm. Melting temperatures were determined by detecting the maximum of the first derivative of the fluorescence ratios (F350 nm/F330 nm) as described previously ([43]). […] The melting temperature (Tm) of GAPDH was calculated as 60 °C, GAPC1/2 to 54 °C, GAPCP1 to 55 °C, and GAPCP2 to 55 °C (Fig. 7, C–F; Tables S5 and S6). […]

[6] = molecular target: T3, GAPCP2; assay: biochemical; design: nanoDSF thermal shift; Tm from ratio of tryptophan fluorescence at 350 and 330 nm
Procedure: as §2

[7] = molecular target: T3, GAPCP2; assay: nanoDSF thermal shift; type: binding; conditions: 50 μM ligand; 0.2-0.25 mg/ml protein; PBS
[8] = molecular target: T4, KPHMT1 (Arabidopsis thaliana, UniProt O82357); assay: microscale thermophoresis; type: binding
T4 construct: N-terminal 144 bp of CDS (mitochondrial signal peptide, 48 residues) deleted; N-terminal His6 (pET300), E. coli BL21 Star (DE3); purified per Results, bacterial lysate used directly per Methods; RED-Tris-NTA labelled
T4 sequence (O82357 49-347): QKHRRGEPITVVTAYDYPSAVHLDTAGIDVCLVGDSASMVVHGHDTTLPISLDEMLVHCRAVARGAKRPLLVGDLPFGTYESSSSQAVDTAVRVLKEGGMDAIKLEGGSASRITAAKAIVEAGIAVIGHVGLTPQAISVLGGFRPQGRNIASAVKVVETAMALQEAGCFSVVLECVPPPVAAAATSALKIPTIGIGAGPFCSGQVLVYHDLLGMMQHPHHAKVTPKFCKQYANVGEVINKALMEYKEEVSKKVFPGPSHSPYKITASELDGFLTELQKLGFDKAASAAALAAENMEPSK

[9] = molecular target: T2, GAPDH; assay: nanoDSF thermal shift; type: binding; conditions: 500 μM ligand; 1 μM protein; 10 mM Tris-HCl pH 7.5, 0.5 M NaCl
[10] = molecular target: T5, MTI (Arabidopsis thaliana, UniProt Q9ZUG4); assay: microscale thermophoresis; type: binding
T5 construct: gene At2g05830; N-terminal His6 (pET300), E. coli BL21 Star (DE3), Ni-NTA purified; RED-Tris-NTA labelled
T5 sequence (Q9ZUG4 1-374): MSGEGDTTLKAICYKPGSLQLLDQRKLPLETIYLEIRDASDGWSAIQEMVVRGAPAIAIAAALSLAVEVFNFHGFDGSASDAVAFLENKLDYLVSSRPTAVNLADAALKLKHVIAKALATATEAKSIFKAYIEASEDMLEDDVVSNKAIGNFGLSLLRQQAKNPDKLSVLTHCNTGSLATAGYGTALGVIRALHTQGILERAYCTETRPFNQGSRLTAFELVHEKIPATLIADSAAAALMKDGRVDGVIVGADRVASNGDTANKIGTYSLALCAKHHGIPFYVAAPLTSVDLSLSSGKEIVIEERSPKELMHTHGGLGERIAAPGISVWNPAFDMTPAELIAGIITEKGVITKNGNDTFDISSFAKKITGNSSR

SMILES	ΔTm at 25 µM [1] [°C]	ΔTm at 500 µM [2] [°C]	ΔTm at 50 µM [3] [°C]	other results
N[C@@H](Cc1ccc(O)cc1)C(=O)N[C@@H](CC(=O)O)C(=O)O [Tyr–Asp] (H-Tyr-Asp-OH)				ΔTm at 25 µM ([1]; experiment 1): -1.56 °C; ΔTm at 25 µM ([1]; experiment 2): -2.09 °C; ΔTm at 25 µM ([1]; experiment 3): -2.2 °C; ΔTm at 25 µM ([1]; experiment 4): -2.06 °C; ΔTm at 500 µM ([2]; experiment 1): 2.2 °C; ΔTm at 500 µM ([2]; experiment 2): 1.31 °C; ΔTm at 500 µM ([2]; experiment 4): 1.06 °C; ΔTm at 50 µM ([3]; experiment 1): -1.6 °C; ΔTm at 50 µM ([3]; experiment 2): -1.58 °C; ΔTm at 50 µM ([3]; experiment 3): -1.55 °C; ΔTm at 50 µM ([3]; experiment 4): -1.23 °C; dTm (destabilized) [4]: ~ 2 °C; ΔTm at 25 µM [5]: -2.06 °C; ΔTm at 50 µM [6]: -1.23 °C; dTm (destabilized) [7]: ~ 1.5 °C
O=C(O)CC[C@H](NC(=O)[C@@H]1CCCN1)C(=O)O [ProGlu] (H-Pro-Glu-OH)	-0.1	0.1	-0.12	
CC(C)C[C@H](N)C(=O)N[C@@H](Cc1ccccc1)C(=O)O [LeuPhe] (H-Leu-Phe-OH)	-0.33	0.2	0.2	
CC(C)C[C@H](NC(=O)[C@@H](N)Cc1ccc(O)cc1)C(=O)O [TyrLeu] (H-Tyr-Leu-OH)	0.15	2.2	1.67	
CC(C)(CO)[C@@H](O)C(=O)NCCC(=O)O [pantothenate]				Kd [8]: 500 µM
N[C@@H](Cc1c[nH]cn1)C(=O)N[C@@H](Cc1ccc(O)cc1)C(=O)O [His–Tyr] (H-His-Tyr-OH)	-0.02	-1.2	0.22	dTm [9]: Tm of the human GAPDH was affected by the presence of two other Tyr-containing dipeptides
CSCC[C@H](NC(=O)[C@@H](N)[C@@H](C)O)C(=O)O [ThrMet] (H-Thr-Met-OH)	-0.01	0.2	0.66	
NCC(=O)N1CCC[C@H]1C(=O)O [GlyPro] (H-Gly-Pro-OH)	-0.11	0.1	0.55	
CSC[C@H]1O[C@@H](n2cnc3c(N)ncnc32)[C@H](O)[C@@H]1O [MTA]				Kd [10]: 4 µM
